The text below walks through data of US6620828B2, “Thiazole compounds and pharmaceutical compositions for inhibiting protein kinases and methods for their use” (Agouron Pharmaceuticals, Inc., priority 1999, dated 2003).

One assay concerns the target T1, LCK tyrosine kinase (Homo sapiens, UniProt P06239, C224D/P223M).
T1 construct: starting from amino acid residue 223 to the end of the protein at residue 509; made in house; host or cells: insect cells
The assay is described as follows: LCK spectrophotometric assay. The settings on record: Table 2; for LCK % inhibition @ 1: at 1 (head μM). It counts as biochemical. How it is done: LCK Construct for Assay: The LCK tyrosine kinase was expressed in insect cells as an N-terminal deletion starting from amino acid residue 223 to the end of the protein at residue 509, with the following two amino acid substitutions at the N-terminus: […] and C224D.
The spectrophotometric assay was carried out as described above for VEGF-R2, except for the following changes in concentration: LCK=60 nM, MgCl2=0 mM, poly(E4Y1)=20 mM.

A further assay deals with CDK2/Cyclin A complex (Homo sapiens, UniProt P24941). The assay is described as follows: CDK2/Cyclin A assay. Particulars: Table 2. It counts as biochemical. A digest of the protocol:
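Radiometric assay: 150 nM CDK2/cyclin A (insect-cell CDK2, truncated cyclin A) phosphorylates His-tagged Rb fragment (residues 386-928) with 25 μM ATP plus [32P]ATP, pH 7.4 HEPES, 2% DMSO, 30 °C for 20 min. Filter-captured product counted by phosphorimager; apparent Ki from competitive or tight-binding inhibition fits.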

In the next assay the target is T2, CDK4/Cyclin D3 complex (Homo sapiens, UniProt P11802).
T2 construct: made in house; host or cells: insect cells co-infected with baculovirus vectors
T2 sequence (P11802 whole entry): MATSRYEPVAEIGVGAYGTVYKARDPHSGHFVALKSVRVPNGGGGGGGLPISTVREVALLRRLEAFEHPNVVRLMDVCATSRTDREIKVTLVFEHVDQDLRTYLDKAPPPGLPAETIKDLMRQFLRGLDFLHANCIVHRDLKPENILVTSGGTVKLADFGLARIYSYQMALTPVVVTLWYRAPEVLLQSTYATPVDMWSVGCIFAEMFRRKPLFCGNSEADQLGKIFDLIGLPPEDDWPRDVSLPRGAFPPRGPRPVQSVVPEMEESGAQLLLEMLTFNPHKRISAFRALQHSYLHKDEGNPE
T2 sequence (P30281 whole entry partner): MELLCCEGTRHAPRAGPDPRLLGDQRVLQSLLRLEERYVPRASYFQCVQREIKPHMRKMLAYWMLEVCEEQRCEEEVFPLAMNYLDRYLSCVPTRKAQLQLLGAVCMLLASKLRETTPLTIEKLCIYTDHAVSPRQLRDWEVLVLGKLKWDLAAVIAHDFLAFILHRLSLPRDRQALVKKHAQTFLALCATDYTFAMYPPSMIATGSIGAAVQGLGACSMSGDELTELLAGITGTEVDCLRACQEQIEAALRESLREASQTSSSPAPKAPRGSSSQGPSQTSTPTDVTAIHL
In words: CDK4/Cyclin D assay. Particulars: Table 2. It counts as biochemical. In a few lines: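 Insect-cell-expressed CDK4/cyclin D3 (50 nM) phosphorylating His-tagged Rb fragment (residues 386-928) with 25 μM [^32P]ATP in HEPES pH 7.4, MgCl2, 2% DMSO; 20 min at 30 °C, EDTA stop. Filter-captured 32P by phosphorimager; apparent Ki from competitive or tight-binding inhibition fits.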

Assay [1] deals with human umbilical vein endothelial cells (HUVEC). In words: HUVEC proliferation assay. It counts as cell-based. Particulars: Homo sapiens, HUVEC, Table 2. In a few lines: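 Exponentially growing HUVEC were serum-starved 24 h (F12K + 1% FBS), pre-treated 1 h with compound (0.1% DMSO final), then stimulated with 6 ng/ml VEGF. Proliferation was read 72 h later by MTT reduction (A595). IC50 came from seven 0.5-log concentrations in triplicate; screens gave % inhibition relative to VEGF-only and starved wells.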

Assay [2] deals with lung cancer cells (line MV522). The assay is described as follows: Cancer cell proliferation (MV522) assay. Type of assay: cell-based. Particulars: MV522, Table 2.

T1 sequence (P06239 223-509 P223M/C224D): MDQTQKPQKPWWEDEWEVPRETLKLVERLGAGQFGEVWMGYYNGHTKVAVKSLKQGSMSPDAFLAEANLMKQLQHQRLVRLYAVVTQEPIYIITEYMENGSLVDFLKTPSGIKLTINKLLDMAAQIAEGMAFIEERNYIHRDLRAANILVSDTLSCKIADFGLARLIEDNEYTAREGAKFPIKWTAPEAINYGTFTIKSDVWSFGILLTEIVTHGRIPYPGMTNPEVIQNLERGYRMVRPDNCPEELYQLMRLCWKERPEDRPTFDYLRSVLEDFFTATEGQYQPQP

As usually defined, the Ki is a measure of affinity in units of concentration, obtained from inhibition or displacement. As a reminder, the IC50 is the concentration at which inhibition is half-maximal. Low values mean greater potency, high ones weaker potency. Turning to `CCCNc1nc(N)c(-c2nc(-c3cccc(O)c3)cs2)s1` [A(29), 3-(4′-Amino-2′-propylamino-[2,5′]bithiazolyl-4-yl)-phenol], at LCK tyrosine kinase (at 5 (head μM)), the “LCK % inhibition @ 5” value came out at 10% @. Besides, the Ki at CDK2/Cyclin A complex came out at 6.4 µM; at CDK4/Cyclin D3 complex, 13 µM. Besides, the IC50 was > 1 µM in assay [1] and > 10 µM in assay [2].
Consider `COc1cc(Nc2nc(N)c(-c3nc(-c4cccc(O)c4)no3)s2)cc(OC)c1OC` [K(1), 3-{5-[4-Amino-2-(3,4,5-trimethoxy-phenylamino)-thiazol-5-yl]-[1,2,4]oxadiazol-3-yl}-phenol], for which the “LCK % inhibition @ 1” value on LCK tyrosine kinase is on record as 42% @. Moreover, the inhibitory constant (Ki) on CDK2/Cyclin A complex was 0.62 µM; at CDK4/Cyclin D3 complex, 6.7 µM. Moreover, the values for the IC50 in assay [1] and in assay [2] were 0.95 µM and 5.4 µM, respectively.
The corresponding values for `COc1cc(Nc2nc(N)c(-c3nc(-c4cccc(O)c4)cs3)s2)cc(OC)c1OC` [A(17), 3-[4′-Amino-2′-(3,4,5-trimethoxy-phenylamino)-[2,5′]bithiazolyl-4-yl]-phenol] are 21% @, 2.1 µM, 29 µM, > 1 µM and > 10 µM.
